Experimental data published in patent US7365231B2, “Compound with antitumor activity and preparation method therefor” (National Taiwan University of Science & Technology, priority 2005, dated 2008).
Blank lines part the entries; values can stand above or below the compound they belong to.

Assays:
colon cancer cell lines = settings: NCI Anticancer Drug Screen; cited from earlier work
human colon cancer cells = settings: cited from earlier work
[1] = xenograft study; cited from earlier work
[2] = test system: human colon cancer cells xenografts; settings: cited from earlier work
[3] = test system: human gastric (SC-M1) cancer; settings: SC-M1 in SCID mice; cited from earlier work
colon (Colo 205) cancer = settings: Colo 205 in SCID mice; cited from earlier work

Compound: 1,6-bis(4-(4-amino-3-hydroxyphenoxy)phenyl)diamantane [DPD]
anticancer activity on colon cancer cell lines (colon cancer cell lines): marked anticancer activities | cell cycle arrest and differentiation (human colon cancer cells): induced G0/G1 arrest and differentiation | acute toxicity [1]: no obvious acute toxicity | in vivo anticancer activity [2]: has in vivo anticancer activity

Compound: O=C1C=CC(=O)N1C12CC3CC(CC(C3)C1)C2 [AMI, N-1-adamantylmaleimide]
apoptosis and tumor growth [3]: induce apoptosis and inhibit the growth

melting point: > 220 °C (dec.)
Compound: Nc1ccc(Oc2ccc(Oc3ccc(N)c(O)c3)cc2)cc1O [Example 8, 1,4-Bis(4-amino-3-hydroxyphenoxy)benzene]

melting point: > 180 °C (dec.)
Compound: Nc1ccc(Oc2ccccc2Oc2ccc(N)c(O)c2)cc1O [Example 10, 1,2-Bis(4-amino-3-hydroxyphenoxy)benzene]

Compound: dimethyladamantylmaleimide [DMAMI]
apoptosis and tumor growth (colon (Colo 205) cancer): induce apoptosis and inhibit the growth
